Patent EP2963052A2, “PEPTIDES WITH CYTOPROTECTIVE ACTIVITY” (Zamerton Holdings Limited, priority 2013, dated 2016)
Residues, ends and D or L forms follow the SMILES beside them.

Key:
HeLa S3 cells = test: Protective effect of peptides on apoptosis and necrosis in the presence of camptothecin (Annexin-V FITC / PI flow cytofluorimetry); format: cell-based, human; conditions: HeLa cell culture, 24 hours
Text: (§1) The experiments to study the effect of peptides on apoptosis and necrosis involved the use of reagents in the ApoTarget Annexin-V FITC Apoptosis Kit (Invitrogen, CIIIA). In addition to Annexin-V, marked by the FITC fluorescent stain, the ApoTarget Annexin-V FITC Apoptosis Kit contains propidium iodide (PI), a dye. PI can permeate only those cells whose cytoplasmic membrane is damaged, which is a characteristic sign of an advanced stage of apoptosis or necrosis. Having permeated cells with damaged cell membrane, PI binds itself to the DNA. The «red» fluorescence of resulting complexes is identified with a flow cytofluorimeter.
(§2) Therefore, the procedure of double staining (Annexin-V FITC plus PI) and the process of flow cytofluorimetry can be used to distinguish 3 cell populations and determine their percentage relationship: 1) non-apoptotic cells (Annexin-V-negative and PI-negative), 2) cells at an early stage of apoptosis (Annexin-V-positive and PI-negative), 3) necrotic cells or cells at an advanced stage of apoptosis (Annexin-V- positive and PI- positive). An increase in the percentage of apoptotic and necrotic cells can serve as a measure of how the compounds added to the culture medium act on these processes. Camptothecin (Camptothecin, Sigma, CIIIA), which is recommended by the manufacturer, was used as control in the experiments because of its pronounced ability to induce apoptosis and necrosis of cells, especially tumor ones.
(§3) Peptide solutions in sterile PBS with concentrations of 1 mg/ml were prepared immediately before the experiments to study the peptides' effect on apoptosis and necrosis. The same solutions that were stored in sterile test tubes at +4°C were used to study the proliferation activity. Working dilutions of peptides in the cell cultivation medium were prepared on the day of each experiment. A sterile plastic 96-well plate (Corning, USA) was used for this purpose. The dilutions were prepared so that the introduction of 25 µl of each working dilution in an experimental well with cultivated cells would result in final concentrations of peptides equal to 400, 200, 100 and 50 ng/ml.
(§4) The HeLa S3 and NIH 3T3 cells were cultivated with the use of reagents manufactured by Invitrogen (USA) and plastic vials, plates, pipettes and filters of Corning (USA). The cells were cultivated in DMEM, prepared with a dry concentrate dissolved in pyrogen-free distilled water (Millipore, USA). The medium contained 10 % FBS, 2 mM of glutamine and penicillin-streptomycin (diluted according to the vendor's recommendations). HeLa S3 and NIH 3T3 were grown in vials T150 at +37 °C in the atmosphere of 5.6 % CO2. The cells were constantly maintained in the logarithmic growth phase, to this end they were passed at least 2 times a week, with trypsin used to remove cells from the walls of the culture vials. Live cells were counted in a hemacytometer after staining the suspension aliquot with trypan blue.
(§5) The HeLa S3 and NIH 3T3 cells were removed from the surface of the culture vials and counted; the concentration was moved to 10^5 cell/ml, and the resulting suspensions were put in doses of 1 ml in the wells of a 24-well plate.
(§6) Having made sure on the following day that the cells adhered to the plate's surface, the culture medium was replaced with a fresh one in each well.
(§7) Camptothecin was added in the control wells (positive control - stimulation of apoptosis and necrosis) to the final concentration of 50 µM that had been determined in preliminary experiments with the NIH 3T3 and HeLa S3 cells. 25 µl of fresh culture medium were added in the control wells (negative control), 25 µl of working peptide dilutions were added in each experimental well (each working dilution - twice), as well as camptothecin in the same final concentration. Incubation was conducted at +37 °C. […]

NIH 3T3 cells = test: as above; format: cell-based, mice; conditions: NIH3T3 cell culture, 24 hours
Text: as §1, §2, §3, §4, §5, §6, §7

[1] = Stability of peptides in storage in solution (HPLC analysis); conditions: 0.05 M ammonium acetate buffer, approx. 1 mg/ml
Description: The peptides were dissolved in 0.05 M of an ammonium acetate buffer with pH 4.5 and pH 7.5 so that their concentrations achieved approximately 1 mg/ml. The solutions were sterilely filtered and kept in sterile, well-sealed vials. Upon expiration of the storage period the substances were analyzed with HPLC.

Annexin-V = target: T1, Annexin-V (Homo sapiens, UniProt P08758); conditions: calcium-dependent phospholipid binding; cited from earlier work
T1 sequence (P08758 1-320): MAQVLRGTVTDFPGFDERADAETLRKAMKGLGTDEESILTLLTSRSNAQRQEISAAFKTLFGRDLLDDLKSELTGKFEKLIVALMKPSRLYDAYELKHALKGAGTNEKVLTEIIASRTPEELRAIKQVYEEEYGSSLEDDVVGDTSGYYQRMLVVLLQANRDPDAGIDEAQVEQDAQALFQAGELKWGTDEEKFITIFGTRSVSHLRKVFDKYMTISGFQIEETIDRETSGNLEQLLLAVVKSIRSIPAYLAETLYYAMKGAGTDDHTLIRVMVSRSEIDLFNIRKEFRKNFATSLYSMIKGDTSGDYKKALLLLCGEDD

[2] = peptide 50 ng/ml + camptothecin 50 µM
[3] = peptide 100 ng/ml + camptothecin 50 µM
[4] = peptide 200 ng/ml + camptothecin 50 µM
[5] = peptide 400 ng/ml + camptothecin 50 µM

Row | Compound | Apoptosis (HeLa S3 cells; [2]) | Necrosis (HeLa S3 cells; [2]) | Apoptosis (HeLa S3 cells; [3]) | Necrosis (HeLa S3 cells; [3]) | Apoptosis (HeLa S3 cells; [4]) | Necrosis (HeLa S3 cells; [4]) | Apoptosis (HeLa S3 cells; [5]) | Necrosis (HeLa S3 cells; [5]) | Apoptosis (NIH 3T3 cells; [2]) | Necrosis (NIH 3T3 cells; [2]) | Apoptosis (NIH 3T3 cells; [3]) | Necrosis (NIH 3T3 cells; [3]) | Apoptosis (NIH 3T3 cells; [4]) | Necrosis (NIH 3T3 cells; [4]) | Apoptosis (NIH 3T3 cells; [5]) | Necrosis (NIH 3T3 cells; [5]) | Peptide stability in storage ([1]; 1hour, pH 4.5, 22°C) | Peptide stability in storage ([1]; 1hour, pH 7.5, 22°C) | Peptide stability in storage ([1]; 10 days, pH 4.5, 22°C) | Peptide stability in storage ([1]; 10 days, pH 7.5, 22°C) | further results
1 | COC(=O)[C@H](CCC(=O)O)NC(=O)[C@@H](N)CC(=O)O [DEOMe, H-Asp-Glu-OCH3] (HELM PEPTIDE1{D.E.[CO[*:1]]}$$$$V2.0) | 4% | 5% | 2.1% | 4.5% | 2.3% | 4.5% | 2.5% | 5.5% | 4% | 6% | 2.5% | 4% | 3% | 5% | 3.3% | 6% | 98.0 | 98.0 | 98.1 | 98.0 | Peptide stability in storage ([1]; 30 days, pH 4.5, 22°C): 97.7; Peptide stability in storage ([1]; 30 days, pH 7.5, 22°C): 97.65; Peptide stability in storage ([1]; 60 days, pH 4.5, 22°C): 97.55; Peptide stability in storage ([1]; 60 days, pH 7.5, 22°C): 97.5; Peptide stability in storage ([1]; 90 days, pH 4.5, 22°C): 97.5; Peptide stability in storage ([1]; 90 days, pH 7.5, 22°C): 97.2
2 | H-Leu-Asp-Glu-OH [LDE] | 1% | 2.5% | 1.4% | 3.1% | 0.5% | 2.2% | 1% | 2.1% | 2% | 3.7% | 2.5% | 3.8% | 1.6% | 3.5% | 2.5% | 3.4% | 96.5 | 96.5 | 96.4 | 96.4 | Peptide stability in storage ([1]; 30 days, pH 4.5, 22°C): 96.4; Peptide stability in storage ([1]; 30 days, pH 7.5, 22°C): 96.4; Peptide stability in storage ([1]; 60 days, pH 4.5, 22°C): 96.2; Peptide stability in storage ([1]; 60 days, pH 7.5, 22°C): 96.2; Peptide stability in storage ([1]; 90 days, pH 4.5, 22°C): 96.2; Peptide stability in storage ([1]; 90 days, pH 7.5, 22°C): 95.6
3 | H-Val-Asp-Glu-OH [VDE] | 2.2% | 3.1% | 3.1% | 3.6% | 3.5% | 4% | 2% | 2.4% | 3.5% | 5% | 1.8% | 2% | 2.2% | 3% | 3% | 4% | 98.1 | 98.1 | 98.0 | 97.7 | Peptide stability in storage ([1]; 30 days, pH 4.5, 22°C): 97.6; Peptide stability in storage ([1]; 30 days, pH 7.5, 22°C): 97.6; Peptide stability in storage ([1]; 60 days, pH 4.5, 22°C): 97.55; Peptide stability in storage ([1]; 60 days, pH 7.5, 22°C): 97.55; Peptide stability in storage ([1]; 90 days, pH 4.5, 22°C): 97.55; Peptide stability in storage ([1]; 90 days, pH 7.5, 22°C): 97.2
4 | phosphatidylcholine | – | – | – | – | – | – | – | – | – | – | – | – | – | – | – | – | – | – | – | – | Kd (Annexin-V): 0.5 nM
